Assay [1] has as its system Mycobacterium tuberculosis. The experiment in a line: Antimycobacterial activity against Mycobacterium tuberculosis H37Rv. The class given is functional.
Assay [2] concerns the target D(2) dopamine receptor (Rattus norvegicus, UniProt P61169). The experiment in a line: Displacement of [3H]methylspiperone from D2 receptor in rat striatal membranes. The class given is cell membranes, Striatum, Membrane.
The target of assay [3] is 5-hydroxytryptamine receptor 2A (Rattus norvegicus, UniProt P14842). The experiment in a line: Displacement of [3H]ketanserin from 5-HT2A receptor in rat frontal cortex membranes. It is filed as cell membranes, Membrane.
5-hydroxytryptamine receptor 2A, sequence (P14842 whole entry): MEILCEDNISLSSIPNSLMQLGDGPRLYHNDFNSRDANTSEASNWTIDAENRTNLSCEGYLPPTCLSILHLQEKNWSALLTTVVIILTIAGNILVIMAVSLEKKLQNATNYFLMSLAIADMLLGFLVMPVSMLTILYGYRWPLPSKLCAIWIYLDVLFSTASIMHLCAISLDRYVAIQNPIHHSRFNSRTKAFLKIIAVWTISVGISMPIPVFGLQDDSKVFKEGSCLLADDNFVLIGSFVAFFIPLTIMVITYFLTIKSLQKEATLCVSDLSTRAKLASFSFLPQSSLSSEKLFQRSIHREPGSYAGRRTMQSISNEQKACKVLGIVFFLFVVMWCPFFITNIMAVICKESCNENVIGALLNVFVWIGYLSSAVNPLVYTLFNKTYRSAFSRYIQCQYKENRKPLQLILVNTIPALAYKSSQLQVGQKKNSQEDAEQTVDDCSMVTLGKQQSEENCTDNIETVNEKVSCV
Assay [4] relates to Geotrichum candidum. Kind of assay: Antimicrobial activity against Geotrichum candidum. The class given is functional.
For assay [5], the system named is HepG2. The experiment in a line: Growth inhibition of human HepG2 cells after 24 hrs by MTT assay relative to control. It is filed as functional.
In assay [6] the target is Acetylcholinesterase (Electrophorus electricus, UniProt O42275). The experiment in a line: Inhibition of electric eel AChE.
Acetylcholinesterase (Electrophorus electricus, UniProt O42275), sequence (O42275 whole entry): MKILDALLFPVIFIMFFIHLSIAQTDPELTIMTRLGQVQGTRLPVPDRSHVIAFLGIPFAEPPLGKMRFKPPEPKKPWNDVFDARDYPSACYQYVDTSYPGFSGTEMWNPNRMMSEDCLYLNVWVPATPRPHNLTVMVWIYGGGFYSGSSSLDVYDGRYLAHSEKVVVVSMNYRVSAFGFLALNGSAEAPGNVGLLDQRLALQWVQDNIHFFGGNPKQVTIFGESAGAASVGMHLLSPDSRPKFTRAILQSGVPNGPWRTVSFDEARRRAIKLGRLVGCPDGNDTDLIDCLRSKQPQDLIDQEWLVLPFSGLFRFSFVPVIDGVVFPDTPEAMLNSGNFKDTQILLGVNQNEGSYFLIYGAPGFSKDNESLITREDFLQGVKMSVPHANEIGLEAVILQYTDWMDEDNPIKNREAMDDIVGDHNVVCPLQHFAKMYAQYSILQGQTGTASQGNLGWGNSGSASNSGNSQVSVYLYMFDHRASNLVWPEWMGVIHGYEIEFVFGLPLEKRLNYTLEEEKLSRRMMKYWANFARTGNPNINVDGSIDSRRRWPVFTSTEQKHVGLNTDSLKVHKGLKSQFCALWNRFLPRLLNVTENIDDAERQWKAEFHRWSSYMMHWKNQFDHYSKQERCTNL
Assay [7] concerns the target Acetylcholinesterase (Homo sapiens, UniProt P22303). Kind of assay: Inhibition of human serum AChE.
The target in assay [8] is T1, Acetylcholinesterase (Rattus norvegicus, UniProt P37136).
T1 sequence (P37136 whole entry): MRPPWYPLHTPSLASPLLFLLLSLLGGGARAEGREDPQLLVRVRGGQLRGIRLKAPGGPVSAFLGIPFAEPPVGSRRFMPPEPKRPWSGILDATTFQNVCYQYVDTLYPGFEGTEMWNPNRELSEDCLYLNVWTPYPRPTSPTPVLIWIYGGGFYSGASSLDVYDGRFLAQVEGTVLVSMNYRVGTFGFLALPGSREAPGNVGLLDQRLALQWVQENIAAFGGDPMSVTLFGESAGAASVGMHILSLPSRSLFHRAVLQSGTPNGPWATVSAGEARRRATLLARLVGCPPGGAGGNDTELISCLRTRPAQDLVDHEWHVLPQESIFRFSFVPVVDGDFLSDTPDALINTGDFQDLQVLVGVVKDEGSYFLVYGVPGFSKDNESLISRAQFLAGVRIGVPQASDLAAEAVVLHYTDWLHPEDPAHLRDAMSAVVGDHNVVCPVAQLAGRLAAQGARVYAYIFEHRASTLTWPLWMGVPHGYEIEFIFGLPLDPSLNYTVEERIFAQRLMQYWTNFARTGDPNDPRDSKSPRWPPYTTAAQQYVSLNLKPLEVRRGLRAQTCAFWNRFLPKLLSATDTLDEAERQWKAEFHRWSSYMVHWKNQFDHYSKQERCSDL
The experiment in a line: Inhibition of rat brain AChE.

A short description of assay [9]: Inhibition of urease (unknown origin).

Structures are written as SMILES. In brackets after ≈: the same amount, converted by molar mass.

Acetylcholinesterase (Homo sapiens, UniProt P22303), sequence (P22303 whole entry): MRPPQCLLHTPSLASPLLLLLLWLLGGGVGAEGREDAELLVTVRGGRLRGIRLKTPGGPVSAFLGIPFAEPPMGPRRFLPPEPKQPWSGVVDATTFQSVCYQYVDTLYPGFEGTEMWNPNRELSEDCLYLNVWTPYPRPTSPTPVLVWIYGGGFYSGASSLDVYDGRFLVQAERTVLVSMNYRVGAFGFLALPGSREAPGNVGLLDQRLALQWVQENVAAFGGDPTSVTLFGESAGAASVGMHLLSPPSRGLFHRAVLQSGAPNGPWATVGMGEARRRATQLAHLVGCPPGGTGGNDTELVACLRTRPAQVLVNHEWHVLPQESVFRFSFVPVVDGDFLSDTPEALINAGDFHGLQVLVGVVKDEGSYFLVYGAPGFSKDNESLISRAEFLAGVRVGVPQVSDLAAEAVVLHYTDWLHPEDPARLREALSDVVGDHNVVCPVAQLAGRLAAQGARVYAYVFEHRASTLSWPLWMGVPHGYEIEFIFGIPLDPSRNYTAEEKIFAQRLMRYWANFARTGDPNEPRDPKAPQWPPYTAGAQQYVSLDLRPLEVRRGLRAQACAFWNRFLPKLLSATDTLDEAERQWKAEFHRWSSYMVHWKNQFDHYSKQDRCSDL
D(2) dopamine receptor, sequence (P61169 whole entry): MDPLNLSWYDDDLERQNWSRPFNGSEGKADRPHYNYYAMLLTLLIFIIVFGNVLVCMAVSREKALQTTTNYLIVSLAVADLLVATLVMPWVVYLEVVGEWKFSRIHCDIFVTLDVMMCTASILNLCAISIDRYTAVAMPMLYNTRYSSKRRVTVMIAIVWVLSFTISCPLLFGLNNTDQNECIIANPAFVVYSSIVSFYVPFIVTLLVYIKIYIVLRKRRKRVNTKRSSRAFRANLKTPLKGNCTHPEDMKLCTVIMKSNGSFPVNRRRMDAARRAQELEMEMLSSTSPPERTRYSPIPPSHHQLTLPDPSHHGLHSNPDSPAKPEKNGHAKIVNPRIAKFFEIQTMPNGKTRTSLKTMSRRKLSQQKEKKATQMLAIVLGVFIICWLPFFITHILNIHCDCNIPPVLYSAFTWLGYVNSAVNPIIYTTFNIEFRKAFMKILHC

Consider `O=S(=O)(c1ccccc1)N1CCN(c2noc3ccccc23)CC1`, for which the MIC in assay [1] was determined as 3.25 µg/mL (≈ 9.46 µM). The same measure, in the same setting: in the case of `Cc1ccc(S(=O)(=O)N2CCN(c3noc4cccc(Cl)c34)CC2)cc1` it was 6.25 µg/mL (≈ 15.9 µM). Take `O=C1c2ccc(OCCCN3CCC(c4noc5cc(F)ccc45)CC3)cc2OCC1CO` (centres undefined): the values for the IC50 in [2] and in assay [3] were 17 nM and 6.2 nM, respectively. In the case of `O=C(c1ccccc1)N(C(=O)c1ccccc1)c1onc2ccccc12`, inhibition of growth in [4] (MIC) required 584 µM (≈ 200 µg/mL). In the case of `O=C(c1c(F)cccc1F)N1CCC(c2noc3cc(F)ccc23)CC1`, in [5], the “growth inhibition (GI)” value stood at 42.06%.

On to `Fc1ccc2c(C3CCN(CCN4CCCC4)CC3)noc2c1`, for which the IC50 in [6] turned out to be 2510 nM; in [7] it was 3290 nM; in assay [8], 5300 nM.

Regarding `O=C(N1CCCC1)N1CCC(c2noc3cc(F)ccc23)CC1`, in [5], the “growth inhibition (GI)” value was determined as 39.19%.

`CCCN1C(=O)C(C)c2cc(C(=O)CN3CCN(c4noc5cc(Cl)ccc45)CC3)ccc21` (centres undefined) returned an MIC in assay [1] of 3.12 µg/mL (≈ 6.68 µM). The molecule `COc1ccc(NC(=S)NC(Cc2ccccc2)C(=O)N2CCCC2C(=O)N2CCC(c3noc4cc(F)ccc34)CC2)cc1` (centres undefined) came in with an IC50 in assay [9] of 4900 nM. In the case of `O=C(c1ccccc1)c1onc2ccccc12`, inhibition of growth in assay [4] (MIC) required 44.8 µM (≈ 10 µg/mL). For `Fc1ccc2c(C3CCN(CCN4CCCCC4)CC3)noc2c1`, the IC50 in [6] was 1500 nM; in [7] it was 2220 nM; in assay [8] it was 1290 nM. `CCCN1C(=O)Cc2cc(C(=O)CN3CCN(c4noc5ccccc45)CC3)ccc21`: in [1], 3.12 µg/mL (≈ 7.46 µM) was the least that counted as inhibitory (MIC). Take `O=C(Nc1ccccc1)c1onc2ccccc12`: it took 840 µM (≈ 200 µg/mL) to inhibit growth in [4] (MIC). As for `O=C(N1CCOCC1)N1CCC(c2noc3cc(F)ccc23)CC1`, in [5], the “growth inhibition (GI)” value came out at 37.75%.

Values taken from ChEMBL document CHEMBL4257462, “Benzisoxazole: a privileged scaffold for medicinal chemistry” (Medchemcomm, 2017).
